According to patent publication US10844002B2, “Lipids and lipid compositions for the delivery of active agents” (priority 2014, dated 2020):

Assays:
[1] = Measurement of mRNA encapsulation in lipid nanoparticles (Quant-iT Ribogreen); format: physicochemical; details: LNP cationic lipid/DSPC/cholesterol/stealth lipid, N:P 4:1, leptin mRNA
Experimental: All equipment and disposable supplies are certified free of RNase activity by the manufacturer or rendered RNase free by use of the RNaseZap reagent (LifeTechnologies). mRNA is encapsulated at a cationic lipid amine to mRNA phosphate (N:P) molar ratio of 4:1. Lipids (cationic lipid, DSPC, cholesterol and lipidated PEG or stealth lipid) are dissolved in ethanol. The molar ratios are 40:10:38:2, respectively. The mixture is sonicated briefly, then gently agitated for 5 minutes and then maintained at 37° C. until use. mRNA is exchanged into citrate buffer pH 5.8-6.0 by use of Amicon Ultra-15 centrifugal concentrators, and the final concentration is adjusted to 0.5 mg/ml and held at 37° C. until use. An equal volume of lipids in ethanol, mRNA in citrate buffer, and citrate buffer alone are drawn into disposable syringes. Tubing leading from syringes containing lipids and mRNA are attached to the T junction, and tubing leading from the syringe containing citrate buffer alone is paired with the tubing exiting the T-junction over a collection vessel containing a stir bar on an active stir plate. Syringes are placed in a syringe pump set to expel contents at a flow rate of 1 ml per minute.
The pump is activated, and the collected mRNA in lipid nanoparticles is transferred to SnakeSkin dialysis tubing (10,000 MWCO, Thermo Scientific). Material is dialyzed against RNAse- and pyrogen-free 1× phosphate buffered saline overnight at 4° C.
Percent encapsulation of mRNA in lipid nanoparticles is determined using the Quant-iT Ribogreen RNA Assay kit (Life Technologies). The LNP-mRNA suspension is assayed in buffer (mRNA outside the particle), and buffer plus Triton X-100 detergent (total mRNA). The difference calculated is the mRNA inside the particle. Prepare a 1000 ng/mL stock from the RNA provided in the kit and use this to generate a standard curve (0 ng/ml, 15.63-1000 ng/ml) in TE and TE+0.75% Triton X-100. Prepare LNP-mRNA samples in TE buffer and TE buffer+0.75% Triton X-100 with appropriate dilution so that reading is in the range of standard curve (400-2,000 fold). In a 384-well plate (Costar non-treated #3573) add 0.04 ml of standard (in duplicate) or sample (in triplicate) per well. Dilute Ribogreen reagent 240-fold in TE buffer and add 0.06 ml per well. Mix contents of wells and measure fluorescence (excitation=480 nm, emission=520 nm). Subtract background values (no RNA) from standard and test sample values and determine the concentrations of RNA in the samples using the standard curves. Determine the percent encapsulation of the sample by dividing the difference in concentrations between sample+triton and sample in buffer alone by the sample+triton concentration.

RSV F protein = format: in vivo; details: Table 4; BALB/c mice, intramuscular, 1 ng vA375 replicon in LNP, days 0 and 21
[2] = Characterization of LNP formulations: Z average particle diameter and polydispersity index; format: physicochemical; details: LNP formulation; for Zav (nm): Z average particle diameter; for polydispersity: polydispersity index
Excerpt: The lipid nanoparticles have a size of about 1 to about 2,500 nm, about 1 to about 1,500 nm, about 1 to about 1,000 nm, in a sub-embodiment about 50 to about 600 nm, in a sub-embodiment about 50 to about 400 nm, in a sub-embodiment about 50 to about 250 nm, and in a sub-embodiment about 50 to about 150 nm. Unless indicated otherwise, all sizes referred to herein are the average sizes (diameters) of the fully formed nanoparticle, as measured by dynamic light scattering on a Malvern Zetasizer. The nanoparticle sample is diluted in phosphate buffered saline (PBS) so that the count rate is approximately 200-400 kcts. The data is presented as a weighted average of the intensity measure.

[3] = Encapsulation efficiency of RNA replicons (Quant-iT RiboGreen); format: physicochemical; details: LNP 40% cationic lipid, 10% DSPC, 48% cholesterol, 2% PEG-DMG; RNA replicon
Experimental: Briefly, lipids were dissolved in ethanol (2m1), a RNA replicon was dissolved in buffer (2 ml, 100 mM sodium citrate, pH 6) and these were mixed with 2 ml of buffer followed by 1 hour of equilibration. The mixture was then dialized overnight against 1×PBS. The resulting product contained liposomes, with ˜70-95% encapsulation efficiency.
The percentage of encapsulated RNA and RNA concentration were determined by Quant-iT RiboGreen RNA reagent kit (Invitrogen), following manufacturer's instructions. The ribosomal RNA standard provided in the kit was used to generate a standard curve. LNPs were diluted 10× or 100× in 1× TE buffer (from kit) before addition of the dye. Separately, LNPs were diluted 10× or 100× in 1× TE buffer containing 0.5% Triton X before addition of the dye (to disrupt the LNPs and thus to assay total RNA). Thereafter an equal amount of dye was added to each solution and then ˜180 μL of each solution after dye addition was loaded in duplicate into a 96 well tissue culture plate. The fluorescence (Ex 485 nm, Em 528 nm) was read on a microplate reader. All LNP formulations were dosed in vivo based on the encapsulated amount of RNA.

| SMILES | % encapsulation (mRNA Leptin) [1] [%] | Log10(IgG titer), 1 ng RNA (RSV-F), 2 weeks post 2nd immunization (RSV F protein) | Zav (nm) [2] [nm] | polydispersity [2] | Encapsulation efficiency (RNA %) [3] [%] |
| --- | --- | --- | --- | --- | --- |
| CCCCC/C=C\C/C=C\CCCCCCCCOc1cc(COC(=O)CCCN(C)C)c(OCCCCCCCC/C=C\C/C=C\CCCCC)cc1C [Example 16, 4-methyl-2,5-bis((9Z,12Z)-octadeca-9,12-dien-1-yloxy)benzyl 4-(dimethylamino)butanoate] | 85.1 | 4.40 | 115.5 | 0.108 | 88.0 |
| CCCCC/C=C\C/C=C\CCCCCCCCOc1ccc(COC(=O)CCCN(C)C)c(OCCCCCCCC/C=C\C/C=C\CCCCC)c1 [Example 19, 2,4-bis((9Z,12Z)-octadeca-9,12-dienyloxy)benzyl 4-(dimethylamino)butanoate] | 84.3 | 4.68 | 133.2 | 0.074 | 79.9 |
